According to the NIST ThermoML archive (doi:10.1016/j.jct.2009.09.007):
Numbers after ± are expanded uncertainties.

CCCCn1cc[n+](C)c1.F[B-](F)(F)F [1-butyl-3-methylimidazolium tetrafluoroborate]
surface tension liquid-gas (284.17 K, Wilhelmy plate method): 45.29 ± 0.07 mN/m
surface tension liquid-gas (284.25 K, Ring tensiometer): 45.44 ± 0.61 mN/m
surface tension liquid-gas (288.28 K, Wilhelmy plate method): 44.98 ± 0.13 mN/m
surface tension liquid-gas (288.35 K, Ring tensiometer): 45.15 ± 0.6 mN/m
surface tension liquid-gas (293.32 K, Wilhelmy plate method): 44.56 ± 0.11 mN/m
surface tension liquid-gas (293.48 K, Ring tensiometer): 44.57 ± 0.6 mN/m
surface tension liquid-gas (298.48 K, Wilhelmy plate method): 44.26 ± 0.1 mN/m
surface tension liquid-gas (298.5 K, Ring tensiometer): 44.41 ± 0.59 mN/m
surface tension liquid-gas (303.41 K, Wilhelmy plate method): 43.84 ± 0.1 mN/m
surface tension liquid-gas (303.51 K, Ring tensiometer): 44.05 ± 0.59 mN/m
surface tension liquid-gas (308.38 K, Wilhelmy plate method): 43.68 ± 0.15 mN/m
surface tension liquid-gas (308.42 K, Ring tensiometer): 43.63 ± 0.59 mN/m
surface tension liquid-gas (313.73 K, Ring tensiometer): 43.21 ± 0.58 mN/m
surface tension liquid-gas (313.79 K, Wilhelmy plate method): 43.21 ± 0.2 mN/m
surface tension liquid-gas (318.15 K, Wilhelmy plate method): 43 ± 0.15 mN/m
surface tension liquid-gas (318.19 K, Ring tensiometer): 43.19 ± 0.58 mN/m
surface tension liquid-gas (323.01 K, Ring tensiometer): 42.84 ± 0.58 mN/m
surface tension liquid-gas (323.03 K, Wilhelmy plate method): 42.58 ± 0.33 mN/m
surface tension liquid-gas (327.8 K, Wilhelmy plate method): 42.46 ± 0.1 mN/m
surface tension liquid-gas (327.9 K, Ring tensiometer): 42.62 ± 0.57 mN/m
surface tension liquid-gas (333.11 K, Wilhelmy plate method): 42.15 ± 0.27 mN/m
surface tension liquid-gas (333.12 K, Ring tensiometer): 42.07 ± 0.57 mN/m
surface tension liquid-gas (337.64 K, Wilhelmy plate method): 41.96 ± 0.1 mN/m
surface tension liquid-gas (337.65 K, Ring tensiometer): 41.78 ± 0.56 mN/m
surface tension liquid-gas (342.32 K, Ring tensiometer): 41.71 ± 0.56 mN/m
surface tension liquid-gas (342.4 K, Wilhelmy plate method): 41.56 ± 0.34 mN/m
surface tension liquid-gas (348.62 K, Ring tensiometer): 41.16 ± 0.56 mN/m
surface tension liquid-gas (348.74 K, Wilhelmy plate method): 41.3 ± 0.19 mN/m
surface tension liquid-gas (351.23 K, Wilhelmy plate method): 40.89 ± 0.18 mN/m
surface tension liquid-gas (351.44 K, Ring tensiometer): 40.85 ± 0.56 mN/m

CCn1cc[n+](C)c1.O=S(=O)([N-]S(=O)(=O)C(F)(F)F)C(F)(F)F
surface tension liquid-gas (283.16 K, Wilhelmy plate method): 36.78 ± 0.07 mN/m
surface tension liquid-gas (283.2 K, Ring tensiometer): 37.07 ± 0.51 mN/m
surface tension liquid-gas (287.3 K, Wilhelmy plate method): 36.58 ± 0.07 mN/m
surface tension liquid-gas (292.6 K, Wilhelmy plate method): 36.35 ± 0.06 mN/m
surface tension liquid-gas (297.89 K, Wilhelmy plate method): 36.13 ± 0.06 mN/m
surface tension liquid-gas (297.95 K, Ring tensiometer): 36.12 ± 0.64 mN/m
surface tension liquid-gas (302.66 K, Wilhelmy plate method): 35.88 ± 0.06 mN/m
surface tension liquid-gas (308.82 K, Wilhelmy plate method): 35.61 ± 0.06 mN/m
surface tension liquid-gas (313.3 K, Wilhelmy plate method): 35.36 ± 0.04 mN/m
surface tension liquid-gas (317.77 K, Wilhelmy plate method): 35.14 ± 0.07 mN/m
surface tension liquid-gas (323.16 K, Ring tensiometer): 34.81 ± 0.48 mN/m
surface tension liquid-gas (323.19 K, Wilhelmy plate method): 34.84 ± 0.04 mN/m
surface tension liquid-gas (327.91 K, Wilhelmy plate method): 34.66 ± 0.04 mN/m
surface tension liquid-gas (327.97 K, Ring tensiometer): 34.73 ± 0.48 mN/m
surface tension liquid-gas (333.82 K, Wilhelmy plate method): 34.29 ± 0.18 mN/m
surface tension liquid-gas (333.86 K, Ring tensiometer): 34.1 ± 0.47 mN/m
surface tension liquid-gas (337.84 K, Wilhelmy plate method): 34.06 ± 0.13 mN/m
surface tension liquid-gas (337.88 K, Ring tensiometer): 34.09 ± 0.47 mN/m
surface tension liquid-gas (343.6 K, Wilhelmy plate method): 33.79 ± 0.23 mN/m
surface tension liquid-gas (346.9 K, Ring tensiometer): 33.74 ± 0.47 mN/m
surface tension liquid-gas (346.93 K, Wilhelmy plate method): 33.66 ± 0.16 mN/m
surface tension liquid-gas (351.54 K, Wilhelmy plate method): 33.42 ± 0.18 mN/m
surface tension liquid-gas (351.67 K, Ring tensiometer): 33.2 ± 0.46 mN/m

CCCC[n+]1ccn(C)c1.O=S(=O)([N-]S(=O)(=O)C(F)(F)F)C(F)(F)F
surface tension liquid-gas (284.15 K, Wilhelmy plate method): 33.46 ± 0.11 mN/m
surface tension liquid-gas (284.19 K, Ring tensiometer): 33.48 ± 0.47 mN/m
surface tension liquid-gas (287.81 K, Wilhelmy plate method): 33.27 ± 0.11 mN/m
surface tension liquid-gas (294.2 K, Wilhelmy plate method): 33.02 ± 0.06 mN/m
surface tension liquid-gas (298.35 K, Wilhelmy plate method): 32.85 ± 0.06 mN/m
surface tension liquid-gas (298.41 K, Ring tensiometer): 33.04 ± 0.46 mN/m
surface tension liquid-gas (301.96 K, Wilhelmy plate method): 32.66 ± 0.07 mN/m
surface tension liquid-gas (306.81 K, Wilhelmy plate method): 32.44 ± 0.07 mN/m
surface tension liquid-gas (310.81 K, Wilhelmy plate method): 32.26 ± 0.07 mN/m
surface tension liquid-gas (317.93 K, Ring tensiometer): 31.97 ± 0.45 mN/m
surface tension liquid-gas (317.94 K, Wilhelmy plate method): 31.97 ± 0.06 mN/m
surface tension liquid-gas (322.99 K, Wilhelmy plate method): 31.74 ± 0.04 mN/m
surface tension liquid-gas (327.92 K, Wilhelmy plate method): 31.58 ± 0.07 mN/m
surface tension liquid-gas (332.97 K, Wilhelmy plate method): 31.3 ± 0.07 mN/m
surface tension liquid-gas (337.12 K, Wilhelmy plate method): 31.17 ± 0.22 mN/m
surface tension liquid-gas (343.28 K, Wilhelmy plate method): 30.91 ± 0.23 mN/m
surface tension liquid-gas (347.82 K, Wilhelmy plate method): 30.76 ± 0.15 mN/m
surface tension liquid-gas (348.05 K, Ring tensiometer): 30.41 ± 0.43 mN/m
surface tension liquid-gas (351.56 K, Wilhelmy plate method): 30.53 ± 0.13 mN/m

CCCCCC[n+]1ccn(C)c1.O=S(=O)([N-]S(=O)(=O)C(F)(F)F)C(F)(F)F
surface tension liquid-gas (283.17 K, Wilhelmy plate method): 32.34 ± 0.09 mN/m
surface tension liquid-gas (287.86 K, Wilhelmy plate method): 32.07 ± 0.16 mN/m
surface tension liquid-gas (293.15 K, Wilhelmy plate method): 31.81 ± 0.06 mN/m
surface tension liquid-gas (298.26 K, Wilhelmy plate method): 31.59 ± 0.07 mN/m
surface tension liquid-gas (303.16 K, Wilhelmy plate method): 31.34 ± 0.07 mN/m
surface tension liquid-gas (308.99 K, Wilhelmy plate method): 30.99 ± 0.11 mN/m
surface tension liquid-gas (314.39 K, Wilhelmy plate method): 30.71 ± 0.06 mN/m
surface tension liquid-gas (318.21 K, Wilhelmy plate method): 30.48 ± 0.07 mN/m
surface tension liquid-gas (323.09 K, Wilhelmy plate method): 30.26 ± 0.09 mN/m
surface tension liquid-gas (327.93 K, Wilhelmy plate method): 30 ± 0.09 mN/m
surface tension liquid-gas (333.53 K, Wilhelmy plate method): 29.8 ± 0.13 mN/m
surface tension liquid-gas (337.7 K, Wilhelmy plate method): 29.45 ± 0.11 mN/m
surface tension liquid-gas (342.32 K, Wilhelmy plate method): 29.28 ± 0.18 mN/m
surface tension liquid-gas (347.3 K, Wilhelmy plate method): 29.06 ± 0.13 mN/m
surface tension liquid-gas (351.11 K, Wilhelmy plate method): 28.91 ± 0.32 mN/m
